The text below walks through data of article PMC6883173 (Nature, 2019).

One may read the stoichiometry N as a count of units in the complex or per binding partner.

For data set [1], the target named is SpoT1–387 (Pseudomonas aeruginosa, UniProt Q9HTM0). Kind of data set: NDK/PK/LDH coupled NADH assay. The format is biochemical.
The target of data set [2] is PurF^EC (Escherichia coli, UniProt P0AG16). Briefly: coupled PurD/PK/LDH NADH assay. Type of data set: biochemical. The settings on record: 30 °C; 50 nM PurF, 5 mM glutamine, 1 mM pRpp-Mg, 10 mM MgCl2, pH 7.4.
Data set [3] concerns the molecule itself. Kind of data set: crystal structure.

As to `Nc1nc2c(ncn2[C@@H]2O[C@H](COP(=O)(O)OP(=O)(O)O)[C@@H](OP(=O)(O)OP(=O)(O)O)[C@H]2O)c(=O)[nH]1` [ppGpp], in data set [1] (1 mM ppGpp, 10 uM enzyme, 5 mM MnCl2, 2 mM MgCl2, pH 7.4, 30 °C), the “NDK/PK/LDH coupled NADH assay (A340)” value is listed as “ppGpp-hydrolyzing domain of SpoT was substantially less active on ppApp than ppGpp in vitro”. For `Nc1ncnc2c1ncn2[C@@H]1O[C@H](COP(=O)(O)OP(=O)(O)O)[C@@H](OP(=O)(O)OP(=O)(O)O)[C@H]1O` [ppApp], in data set [1] (1 mM ppApp, otherwise same), the “NDK/PK/LDH coupled NADH assay (A340)” value is “ppGpp-hydrolyzing domain of SpoT was substantially less active on ppApp than ppGpp in vitro”. Besides, the activity versus concentration result in data set [2] is reported as “Changes to the activity of PurF^EC in the presence of indicated concentrations of ppGpp or ppApp”.

B1: PurF from E. coli (PurF^EC), glutamine amidophosphoribosyltransferase (enzyme, UniProt P0AG16 1-505, looked up)
chain: MCGIVGIAGVMPVNQSIYDALTVLQHRGQDAAGIITIDANNCFRLRKANGLVSDVFEARHMQRLQGNMGIGHVRYPTAGSSSASEAQPFYVNSPYGITLAHNGNLTNAHELRKKLFEEKRRHINTTSDSEILLNIFASELDNFRHYPLEADNIFAAIAATNRLIRGAYACVAMIIGHGMVAFRDPNGIRPLVLGKRDIDENRTEYMVASESVALDTLGFDFLRDVAPGEAIYITEEGQLFTRQCADNPVSNPCLFEYVYFARPDSFIDKISVYSARVNMGTKLGEKIAREWEDLDIDVVIPIPETSCDIALEIARILGKPYRQGFVKNRYVGRTFIMPGQQLRRKSVRRKLNANRAEFRDKNVLLVDDSIVRGTTSEQIIEMAREAGAKKVYLASAAPEIRFPNVYGIDMPSATELIAHGREVDEIRQIIGADGLIFQDLNDLIDAVRAENPDIQQFECSVFNGVYVTKDVDQGYLDFLDTLRNDDAKAVQRQNEVENLEMHNEG
For the molecule B1, the “stoichiometry N” value in data set [3] worked out at 4.
